Target: T1, FAAH (Rattus norvegicus, UniProt P97612)
T1 construct: For the assay of FAAH activity in rat brain membrane (RBM) homogenates; tissue Charles River (animals); host or cells: rat whole brain, membrane fraction
T1 sequence (P97612 1-579): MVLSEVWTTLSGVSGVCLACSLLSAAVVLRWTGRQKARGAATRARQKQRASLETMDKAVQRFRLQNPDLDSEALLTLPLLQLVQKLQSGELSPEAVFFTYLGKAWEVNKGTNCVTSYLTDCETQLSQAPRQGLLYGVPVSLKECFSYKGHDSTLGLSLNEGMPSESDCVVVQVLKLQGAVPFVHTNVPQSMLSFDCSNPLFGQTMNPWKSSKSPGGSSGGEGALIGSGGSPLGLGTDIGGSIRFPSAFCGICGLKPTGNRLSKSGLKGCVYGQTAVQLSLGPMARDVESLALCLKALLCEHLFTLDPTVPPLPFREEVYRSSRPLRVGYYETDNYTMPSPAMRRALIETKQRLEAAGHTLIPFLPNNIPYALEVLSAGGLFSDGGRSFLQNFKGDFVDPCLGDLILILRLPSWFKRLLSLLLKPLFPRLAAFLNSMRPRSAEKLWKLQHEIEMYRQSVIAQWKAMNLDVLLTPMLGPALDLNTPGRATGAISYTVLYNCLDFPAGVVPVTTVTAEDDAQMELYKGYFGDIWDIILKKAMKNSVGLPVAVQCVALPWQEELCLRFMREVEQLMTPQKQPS
Assay: FAAH inhibition, rat brain membrane homogenate assay
Format: biochemical
Conditions: rat brain homogenate; average activity; read-out: Rat Brain Extract FAAH IC50
Method: Adult rats (Charles River CD strain, female, 200 g) were anaesthetized with isofluorane and rapidly decapitated. Each brain was quickly removed and chilled in tubes (3 brains per tube) on ice. About 25 mL of “homogenization buffer” (20 mM HEPES buffer, pH 7.0, with 1 mM MgCl2) was added to 15 to 20 g of brain. The brains were homogenized on ice for 1 minute using an Omni GLH homogenizer (Omni International, Marietta, Ga.). The homogenates were then transferred to three centrifuge tubes and centrifuged at 36,500 g for 20 minutes at 4° C. The supernatant was discarded and each pellet was re-suspended in 25 mL homogenization buffer. The re-suspended material was again centrifuged (36,500 g, 20 minutes at 4° C.). Pellets were combined by re-suspension in 10 mL of homogenization buffer and incubated in a 37° C. water bath for 15 minutes. The tubes were then placed on ice for 5 minutes followed by centrifugation at 36,500 g for 20 minutes at 4° C. The supernatant was discarded and the membrane pellets were then re-suspended in 40 mL of “re-suspension buffer” (50 mM Tris-HCl buffer, pH 7.4, containing 1 mM EDTA and 3 mM MgCl2). A Bradford Protein assay was performed to determine protein concentration. The protein was aliquotted into screw cap Cryo tubes each containing −400 μL, flash-frozen in liquid nitrogen and stored at −80° C. until used for the assay. A similar protocol was used to obtain brain membrane homogenates from mice
FAAH activity was assayed in the respective homogenates described herein (Rat brain, Mouse brain or Human brain) with certain of the exemplary compounds described above using a modification of the method of Omeir et al. (1995 Life Sci. 56:1999) and Fowler et al. (1997 J. Pharmacol. Exp. Ther. 283:729). For the assay of FAAH activity in rat brain membrane (RBM) homogenates, RBM homogenates (7 μg protein in 20 μL final volume of 10 mM Tris pH 6.5) were mixed with 180 μL of a mixture of the following: […] unlabelled anandamide (AEA), 0.03 Ci radio labeled anandamide [ethanolamine 1-^3H](40-60 Ci/mmol; product number ART-626, American Radiolabelled Chemicals, St. Louis, Mo.), 1 mg/mL Bovine Serum Albumin (fatty acid-free BSA, electrophoresis grade, Sigma, St. Louis, Mo.), 10 mM Tris-HCl (pH 6.5), and 1 mM EDTA in the presence and absence of test compounds (vehicle was DMSO at a final concentration of 1%) and incubated for 10 minutes at 37° C. Samples were placed on ice to terminate the reactions.
The ^3H-ethanolamine product and un-reacted ^3H-anandamide substrate were then separated by either: (1) using chloroform/methanol extraction or (2) passing the reaction mixture through a glass fiber filter containing activated charcoal. Samples were extracted with chloroform/methanol by adding 0.4 mL of chloroform/methanol (1:1 v/v), vigorously mixing the samples, and separating the aqueous and organic phases by centrifugation. Radioactivity (corresponding to FAAH-catalyzed breakdown of ^3H-anandamide) found in aliquots (0.2 mL) of the aqueous phase was determined by liquid scintillation counting with quench correction. IC50 values were determined as described by Jonsson et al. (2001 Br. J Pharmacol. 133:1263). Alternatively, reactions were purified using a modification of the solid-phase extraction method described by Wilson et al (2003 Anal. Biochem. 318: 270). This method was modified as follows: after reactions were incubated at 37° C. for 10 minutes and chilled on ice, the reaction mixtures were acidified by adding 10 μL of sodium phosphate solution[0.5M (pH 2.0)]. Next, 90 μL aliquots of the acidified reaction mixtures were applied to activated charcoal (that had been previously washed with methanol as described by Wilson et al. (supra)) containing 80 μL of water on top of a glass fiber filter, centrifuged, and the radioactivity in the eluate was counted as described previously by Wilson et al. (supra). […]

Row | SMILES | IC50 [nM]
1 | COc1cc(NC(=O)C(=O)c2c(C)n(Cc3ccc(Cl)cc3)c3ccc(N)c(Cl)c23)ccn1 [Compound 73, 2-(5-amino-4-chloro-1-(4-chlorobenzyl)-2-methyl-1H-indol-3-yl)-N-(2-methoxypyridin-4-yl)-2-oxoacetamide] | 100 to 1000
2 | COc1ccc2c(C(=O)C(=O)Nc3ccnc(OC)c3)c(C)n(Cc3ccc(Cl)cc3)c2c1 [Compound 48, 2-(1-(4-chlorobenzyl)-6-methoxy-2-methyl-1H-indol-3-yl)-N-(2-methoxypyridin-4-yl)-2-oxoacetamide] | < 100
3 | COc1ccc2c(c1)c(C(=O)C(=O)Nc1ccnc(OC)c1F)c(C)n2Cc1ccc(Cl)cc1 [Compound 53, 2-(1-(4-chlorobenzyl)-5-methoxy-2-methyl-1H-indol-3-yl)-N-(3-fluoro-2-methoxypyridin-4-yl)-2-oxoacetamide] | < 100
4 | COc1cc(NC(=O)C(=O)c2c(C)n(Cc3ccc(Cl)cc3)c3cc(Cl)c(OC)cc23)ccn1 [Compound 55, 2-(6-chloro-1-(4-chlorobenzyl)-5-methoxy-2-methyl-1H-indol-3-yl)-N-(2-methoxypyridin-4-yl)-2-oxoacetamide] | < 100
5 | COc1ccc2c(c1)c(C(=O)C(=O)Nc1ccnc(OC)c1)c(C)n2Cc1ccncc1 [Compound 16, 2-(5-methoxy-2-methyl-1-(pyridin-4-ylmethyl)-1H-indol-3-yl)-N-(2-methoxypyridin-4-yl)-2-oxoacetamide] | 100 to 1000
6 | COc1cc(NC(=O)C(=O)c2c(C)n(Cc3ccc(Cl)cc3)c3ccc(OC(C)=O)cc23)ccn1 [Compound 1, 1-(4-chlorobenzyl)-3-(2-(2-methoxypyridin-4-ylamino)-2-oxoacetyl)-2-methyl-1H-indol-5-yl acetate] | < 100
7 | COc1cc(NC(=O)C(=O)c2c(C)n(Cc3ncc(Cl)cc3Cl)c3cc(Cl)c(OC)cc23)ccn1 [Compound 70, 2-(6-chloro-1-((3,5-dichloropyridin-2-yl)methyl)-5-methoxy-2-methyl-1H-indol-3-yl)-N-(2-methoxypyridin-4-yl)-2-oxoacetamide] | < 100
8 | COc1cc(NC(=O)C(=O)c2c(C)n(Cc3ccc(Cl)cc3)c3ccc(NC(C)=O)cc23)ccn1 [Compound 22, 2-(5-acetamido-1-(4-chlorobenzyl)-2-methyl-1H-indol-3-yl)-N-(2-methoxypyridin-4-yl)-2-oxoacetamide] | 100 to 1000
9 | COc1ccc2c(c1)c(C(=O)C(=O)Nc1ccnc(OC)c1)c(C)n2Cc1ncc(Cl)cc1OC [Compound 100, 2-(1-((5-chloro-3-methoxypyridin-2-yl)methyl)-5-methoxy-2-methyl-1H-indol-3-yl)-N-(2-methoxypyridin-4-yl)-2-oxoacetamide] | < 100
10 | COc1cc(NC(=O)C(=O)c2c(C)n(Cc3ccc(Cl)cc3)c3ccc(OC)nc23)ccn1 [Compound 36, 2-(1-(4-chlorobenzyl)-5-methoxy-2-methyl-1H-pyrrolo[3,2-b]pyridin-3-yl)-N-(2-methoxypyridin-4-yl)-2-oxoacetamide] | < 100
11 | COc1cc(NC(=O)C(=O)c2c(C)n(Cc3ccc(Cl)cn3)c3ccccc23)ccn1 [Compound 68, 2-(1-((5-chloropyridin-2-yl)methyl)-2-methyl-1H-indol-3-yl)-N-(2-methoxypyridin-4-yl)-2-oxoacetamide] | < 100
12 | COc1cc(NC(=O)C(=O)c2c(C)n(Cc3ccc(Cl)cc3)c3cccc(OC)c23)ccn1 [Compound 45, 2-(1-(4-chlorobenzyl)-4-methoxy-2-methyl-1H-indol-3-yl)-N-(2-methoxypyridin-4-yl)-2-oxoacetamide] | < 100
13 | COc1cc(NC(=O)C(=O)c2c(C)n(Cc3ccc(Cl)cn3)c3ccc(C)cc23)ccn1 [Compound 61, 2-(1-((5-chloropyridin-2-yl)methyl)-2,5-dimethyl-1H-indol-3-yl)-N-(2-methoxypyridin-4-yl)-2-oxoacetamide] | < 100
14 | CNCc1ccc2c(c1)c(C(=O)C(=O)Nc1ccnc(OC)c1)c(C)n2Cc1ccc(Cl)cc1 [Compound 25, 2-(1-(4-chlorobenzyl)-2-methyl-5-((methylamino)methyl)-1H-indol-3-yl)-N-(2-methoxypyridin-4-yl)-2-oxoacetamide] | 1000 to 10000
15 | COc1cc(NC(=O)C(=O)c2c(C)n(Cc3ccc(Cl)cn3)c3ccc([N+](=O)[O-])cc23)ccn1 [Compound 62, 2-(1-((5-chloropyridin-2-yl)methyl)-2-methyl-5-nitro-1H-indol-3-yl)-N-(2-methoxypyridin-4-yl)-2-oxoacetamide] | < 100
16 | COc1cnc2c(c1)c(C(=O)C(=O)Nc1ccnc(OC)c1)c(C)n2Cc1ncc(Cl)cc1Cl [Compound 29, 2-(1-((3,5-dichloropyridin-2-yl)methyl)-5-methoxy-2-methyl-1H-pyrrolo[2,3-b]pyridin-3-yl)-N-(2-methoxypyridin-4-yl)-2-oxoacetamide] | < 100
17 | COc1ccc2c(c1)c(C(=O)C(=O)Nc1ccnc(OC)c1Cl)c(C)n2Cc1ccc(Cl)cc1 [Compound 52, N-(3-chloro-2-methoxypyridin-4-yl)-2-(1-(4-chlorobenzyl)-5-methoxy-2-methyl-1H-indol-3-yl)-2-oxoacetamide] | > 10000
18 | COCc1ccc2c(c1)c(C(=O)C(=O)Nc1ccnc(OC)c1)c(C)n2Cc1ccc(Cl)cc1 [Compound 11, 2-(1-(4-chlorobenzyl)-5-(methoxymethyl)-2-methyl-1H-indol-3-yl)-N-(2-methoxypyridin-4-yl)-2-oxoacetamide] | < 100
19 | COc1ccc2c(c1)c(C(=O)C(=O)Nc1ccnc(OC)c1)c(C)n2Cc1ccccn1 [Compound 77, 2-(5-methoxy-2-methyl-1-(pyridin-2-ylmethyl)-1H-indol-3-yl)-N-(2-methoxypyridin-4-yl)-2-oxoacetamide] | < 100
20 | COc1cc(NC(=O)C(=O)c2c(C)n(Cc3ccc(Cl)cc3)c3ccc(N)cc23)ccn1 [Compound 20, 2-(5-amino-1-(4-chlorobenzyl)-2-methyl-1H-indol-3-yl)-N-(2-methoxypyridin-4-yl)-2-oxoacetamide] | < 100
21 | COc1cc(NC(=O)C(=O)c2c(C)n(Cc3ccc(Cl)cc3)c3c(OC)cccc23)ccn1 [Compound 51, 2-(1-(4-chlorobenzyl)-7-methoxy-2-methyl-1H-indol-3-yl)-N-(2-methoxypyridin-4-yl)-2-oxoacetamide] | 1000 to 10000
22 | COc1cnc2c(c1)c(C(=O)C(=O)Nc1ccnc(OC)c1)c(C)n2Cc1ccc(Cl)cn1 [Compound 41, 2-(1-((5-chloropyridin-2-yl)methyl)-5-methoxy-2-methyl-1H-pyrrolo[2,3-b]pyridin-3-yl)-N-(2-methoxypyridin-4-yl)-2-oxoacetamide] | < 100

Reference: patent publication US20150175599A1, “FAAH Inhibitors” (Ironwood Pharmaceuticals, Inc., priority 2010, published 2015)
